Experimental data taken from patent US20160039825A1 (BIOGEN MA INC., priority 2013, published 2016).

Target: T1, Human ATX protein (Homo sapiens, UniProt Q13822)
T1 construct: made in house
Test: Autotaxin (ATX) assay, FRET with FS-3 substrate
Format: biochemical
Conditions: upper bound bins (no greater than 100, 250 or 500 nM); FS-3 2 μM, ATX 1.0 μg/mL
Text: ATX (Autotaxin) is a 125 KDa glycoprotein with lysophospholipase D (LPLD) activity that generates the bioactive lipid lysophosphatidic acid (LPA) from lysophosphatidylcholine (LPC). The ATX biochemical assay utilizes a FRET (fluorescence resonance energy transfer) technology platform. The fluorescence signal of FRET substrate FS-3 is quenched due to intra-molecular FRET of a fluorophore to a non-fluorescing quencher (Ferguson, C. G., et al., Org Lett. 2006 May 11; 8(10): 2023-2026, which is incorporated by reference in its entirety). ATX catalyzes the hydrolysis of the substrate which separates the dabsyl quencher from the fluorescein reporter, which becomes fluorescent. The reaction is monitored by a SpectraMax M5 (Molecular Devices, Sunnyvale, Calif.) with at excitation wavelength 485 nm and emission wavelength […].
Fatty acid free-BSA (Sigma A8806): 10 mg/mL in H2O, stored at 4° C.
2×ATX assay buffer: 100 mM Tris, 280 mM NaCl, 10 mM KCl, 2 mM CaCl2, 2 mM MgCl2, pH 7.4.
Human ATX protein: expressed and purified in house. Stored at −80° C.
Substrate FS-3 (Echelon, L-2000): 100 μg in 77.74 μL H2O (1 mM stock), stored at −20° C.
384-well flat bottom plates—Corning #3575.
Compound dilution—All compounds were provided at 10 mM in 100% DMSO. In the first well, 2 μL of 10 mM compound was added to 78 μL of DMSO (1:40 dilution). In subsequent wells 3-fold dilution (total 10 dilutions) were performed.
1×ATX assay buffer was made up with a final concentration of 1 mg/mL fatty acid free-BSA using 2×ATX assay buffer, 10 mg/ml fatty acid free-BSA and ddH2O.
ATX protein was diluted with 1×ATX assay buffer to a concentration of 1.32 μg/mL (1.32×). 38 μL was added per well to the assay plate. The final concentration of ATX in the reaction as 1.0 μg/mL.
2 μL per well of compounds was transferred to provide the desired concentration. The plate was centrifuged, then incubated at room temperature for 30 minutes on the shaker.
FS-3 was diluted with 1×ATX assay buffer to a concentration of FS-3 of 10 μM (5×). Then, 10 μL was added per well to the assay plate. The final concentration of FS-3 in the reaction was 2 μM. The plate was centrifuged. The plate was kept shaking at room temperature for 2 hours. Because FS-3 substrate is light sensitive, plates were kept covered and protected from light.
Fluorescence was measured using SpectraMax M5 (excitation at 485 nm/emission at 538 nm, top read).

Structure (SMILES)	IC50 [nM]
O=C(OCc1cc(Cl)cc(Cl)c1)N1CCCn2nc(C(=O)N3C4CCCC3CCC4)cc2C1 [Example 12, 3,5-Dichlorobenzyl 2-(9-azabicyclo[3.3.1]nonane-9-carbonyl)-7,8-dihydro-4H-pyrazolo[1,5-a][1,4]diazepine-5(6H)-carboxylate]	≤ 100
CN1C2CCCC1CN(C(=O)c1cc3n(n1)CCCN(C(=O)OCc1cc(Cl)cc(C(F)(F)F)c1)C3)C2 [Example 217]	≤ 100
CN1CCN(C(=O)c2cc3n(n2)CCCN(C(=O)OCc2cc(Cl)cc(C(F)(F)F)c2)C3)C2(CCC2)C1 [Example 174]	≤ 100
CC1(C)CNCCN1C(=O)c1cc2n(n1)CCN(C(=O)OCc1cc(Cl)cc(C(F)(F)F)c1)C2 [Example 432]	≤ 100
O=C(OCc1cc(Cl)cc(C(F)(F)F)c1)N1CCCn2nc(C(=O)N3C4CCC3CNC4)cc2C1 [Example 203]	≤ 100
O=C(NC1CCCC1)c1cc2n(n1)CCCN(C(=O)OCc1cc(Cl)cc(Cl)c1)C2 [Example 16, 3,5-Dichlorobenzyl 2-(cyclopentylcarbamoyl)-7,8-dihydro-4H-pyrazolo[1,5-a][1,4]diazepine-5(6H)-carboxylate]	≤ 100
O=C(O)C1CNCCN1C(=O)c1cc2n(n1)CCCN(C(=O)OCc1cc(Cl)cc(C(F)(F)F)c1)C2 (stereo not drawn) [Example 226]	≤ 100
CCOC(=O)c1cc2n(n1)CC(O)CN(C(=O)OCc1cc(C(F)(F)F)cc(C(F)(F)F)c1)C2 (stereo not drawn) [Example 409]	≤ 100
CON(C)C(=O)c1cc2n(n1)CCCN(C(=O)OCc1cc(C(F)(F)F)cc(C(F)(F)F)c1)C2 [Example 144, 3,5-Bis(trifluoromethyl)benzyl 2-(methoxy(methyl)carbamoyl)-7,8-dihydro-4H-pyrazolo[1,5-a][1,4]diazepine-5(6H)-carboxylate]	≤ 100
O=C(OCc1cc(C(F)(F)F)cc(C(F)(F)F)c1)N1CCCn2nc(NC3CC4CCC(C3)N4)cc2C1 (stereo not drawn) [Example 318]	≤ 100
O=C(NC1COC1)c1cc2n(n1)CCCN(C(=O)OCc1cc(C(F)(F)F)cc(C(F)(F)F)c1)C2 [Example 505]	≤ 100
O=C(O)c1cc2n(n1)CCN(C(=O)OCc1cc(C(F)(F)F)cc(C(F)(F)F)c1)C2 [Example 419]	≤ 250
CC1CN(C(=O)c2cc3n(n2)CCCN(C(=O)OCc2cc(Cl)cc(C(F)(F)F)c2)C3)CC(C)N1 (stereo not drawn) [Example 198]	≤ 100
O=C(OCc1cc(C(F)(F)F)cc(C(F)(F)F)c1)N1CCCn2nc(N3CC4CNCC4C3)cc2C1 (stereo not drawn) [Example 351]	≤ 100
CC1COCC(C)N1CC(=O)c1cc2n(n1)CCCN(C(=O)OCc1cc(Cl)cc(C(F)(F)F)c1)C2 (stereo not drawn) [Example 261]	≤ 100
O=C(O)C1CC2CCCC(C1)N2C(=O)c1cc2n(n1)CCN(C(=O)OCc1cc(F)cc(Cl)c1)C2 (stereo not drawn) [Example 46, 9-(5-(((3-Chloro-5-fluorobenzyl)oxy)carbonyl)-4,5,6,7-tetrahydropyrazolo[1,5-a]pyrazine-2-carbonyl)-9-azabicyclo[3.3.1]nonane-3-carboxylic acid]	≤ 100
CC(NC1COC1)c1cc2n(n1)CCCN(C(=O)OCc1cc(C(F)(F)F)cc(C(F)(F)F)c1)C2 (stereo not drawn) [Example 509]	≤ 250
CC(C)(C)OC(=O)N1CC=C(c2cc3n(n2)CCN(C(=O)OCc2cc(C(F)(F)F)cc(C(F)(F)F)c2)C3)CC1 [Example 497]	≤ 100
CC(C)C1CC(Nc2cc3n(n2)CCCN(C(=O)OCc2cc(C(F)(F)F)cc(C(F)(F)F)c2)C3)CCN1 (stereo not drawn) [Example 314]	≤ 100
O=C(OCc1cc(Cl)cc(C(F)(F)F)c1)N1CCCn2nc(C(=O)N3C[C@@H]4C[C@H]3CN4)cc2C1 [Example 204]	≤ 100

Structure (SMILES)	IC50 [nM]
CN1C2C=C(c3cc4n(n3)CCCN(C(=O)OCc3cc(C(F)(F)F)cc(C(F)(F)F)c3)C4)CC1CC2 (stereo not drawn) [Example 379]	≤ 100
CC(=O)c1cc2n(n1)CCCN(C(=O)OCc1cc(C(F)(F)F)cc(C(F)(F)F)c1)C2 [Example 145, 3,5-Bis(trifluoromethyl)benzyl 2-acetyl-7,8-dihydro-4H-pyrazolo[1,5-a][1,4]diazepine-5(6H)-carboxylate]	≤ 100
O=C(CN1CCCC1)c1cc2n(n1)CCCN(C(=O)OCc1cc(Cl)cc(C(F)(F)F)c1)C2 [Example 273]	≤ 100
O=C(NC1CC(O)C1)c1cc2n(n1)CCCN(C(=O)OCc1cc(C(F)(F)F)cc(C(F)(F)F)c1)C2 (stereo not drawn) [Example 504]	≤ 100
CN1CC2CCC1CN2C(=O)c1cc2n(n1)CCCN(C(=O)OCc1cc(C(F)(F)F)cc(C(F)(F)F)c1)C2 (stereo not drawn) [Example 222]	≤ 100
O=C(OCc1cc(Cl)cc(C(F)(F)F)c1)N1CCn2nc(C(=O)N3CCNCC3)cc2C1 [Example 434]	≤ 100
O=C(OCc1cc(Cl)cc(C(F)(F)F)c1)N1CCCn2nc(C(=O)N3CCC4(CCNCC4)C3)cc2C1 [Example 169]	≤ 100
CN1CCN(C(=O)c2cc3n(n2)CCCN(C(=O)OCc2cc(Cl)cc(C(F)(F)F)c2)C3)C(C(=O)O)C1 (stereo not drawn) [Example 184]	≤ 100
CN1CC2CN(C(=O)c3cc4n(n3)CCCN(C(=O)OCc3cc(Cl)cc(C(F)(F)F)c3)C4)CC2C1 (stereo not drawn) [Example 168]	≤ 100
CN1CC2CN(c3cc4n(n3)CCCN(C(=O)OCc3cc(C(F)(F)F)cc(C(F)(F)F)c3)C4)CC2C1 (stereo not drawn) [Example 349]	≤ 100
CC(=O)c1cc2n(n1)CCN(C(=O)OCc1cc(C(F)(F)F)cc(C(F)(F)F)c1)C2 [Example 401, 3,5-bis(trifluoromethyl)benzyl 2-acetyl-6,7-dihydropyrazolo[1,5-a]pyrazine-5(4H)-carboxylate]	≤ 500
CN1CCN(C(=O)c2cc3n(n2)CCCN(C(=O)OCc2cc(Cl)cc(C(F)(F)F)c2)C3)CC1C(F)(F)F (stereo not drawn) [Example 186]	≤ 100
CC(C)(C(=O)O)c1cc2n(n1)CCCN(C(=O)OCc1cc(C(F)(F)F)cc(C(F)(F)F)c1)C2 [Example 388]	≤ 100
CC(C)(C)OC(=O)N1CCC(c2cc3n(n2)CCCN(C(=O)OCc2cc(C(F)(F)F)cc(C(F)(F)F)c2)C3)C1 (stereo not drawn) [Example 383]	≤ 100
O=C(O)c1cc2n(n1)CCCN(C(=O)OCc1cc(Cl)cc(Cl)c1)C2 [Example 7, 5-(((3,5-Dichlorobenzyl)oxy)carbonyl)-5,6,7,8-tetrahydro-4H-pyrazolo[1,5-a][1,4]diazepine-2-carboxylic acid]	≤ 100
O=C(O)c1cnc2n1CCN(C(=O)OCc1cc(C(F)(F)F)cc(C(F)(F)F)c1)CC2 [Example 10, 7-(((3,5-Bis(trifluoromethyl)benzyl)oxy)carbonyl)-6,7,8,9-tetrahydro-5H-imidazo[1,2-d][1,4]diazepine-3-carboxylic acid]	≤ 500
CC1CN(C(=O)c2cc3n(n2)CCN(C(=O)OCc2cc(C(F)(F)F)cc(C(F)(F)F)c2)C3)CC(C)N1C(=O)OC(C)(C)C (stereo not drawn) [Example 469]	≤ 100
O=C(OCc1cc(C(F)(F)F)cc(C(F)(F)F)c1)N1CCCn2nc(C(=O)N3CCC(F)CC3)cc2C1 [Example 32, 3,5-Bis(trifluoromethyl)benzyl 2-(4-fluoropiperidine-1-carbonyl)-7,8-dihydro-4H-pyrazolo[1,5-a][1,4]diazepine-5(6H)-carboxylate]	≤ 100
O=C(OCc1cc(Cl)cc(Cl)c1)N1CCCn2nc(C(=O)N3CCN4CCC[C@@H]4C3)cc2C1 [Example 228]	≤ 100
